Values of other authors in US20030100493A1, “Sublingual use of inhibitors in the biosynthesis of cholesterol” (priority 2001, published 2003).

What was measured:
[1] = in vivo
[2] = sublingual; coronary patient
cholesterol synthesis = settings: compared with the other statins

| passage of the blood brain barrier [1] | Structure (SMILES) | other results |
| --- | --- | --- |
| do not pass the blood brain barrier | CC(C)n1c(/C=C/C(O)CC(O)CC(=O)O)c(-c2ccc(F)cc2)c2ccccc21 (stereo not shown) [Fluvastatin] |  |
|  | O=[N+]([O-])OCC(CO[N+](=O)[O-])O[N+](=O)[O-] [Nitroglycerin] | duration of effect (short lasting effect) [2]: five to ten |
| do not pass the blood brain barrier | CC[C@H](C)C(=O)O[C@H]1C[C@H](O)C=C2C=C[C@H](C)[C@H](CC[C@@H](O)C[C@@H](O)CC(=O)O)[C@H]21 [Pravastatin] |  |
|  | CC(C)c1nc(N(C)S(C)(=O)=O)nc(-c2ccc(F)cc2)c1/C=C/[C@@H](O)C[C@@H](O)CC(=O)O [Rosuvastatin] | potency as an inhibitor of cholesterol synthesis (cholesterol synthesis): significantly higher potency |
